Like-named read-outs stand apart in the source and are kept apart here.
Tests used:
[1] = for Amount in urine collected for 10 h after consumption of cooked beef: Mean ± SD of 3 independent measurements; for % Dose in urine collected for 10 h after consumption of cooked beef: metabolites as % of dose of parent MeIQx or PhIP; for Amount in urine, Overall mean: mean of 3 days; for Amount present in urine samples: urine after meat consumption, LOQ ~50 pg/mL
P450 1A2 [2] = settings: human liver microsomes, cited from earlier work
P450 1A2 [3] = settings: subjects given furafylline prior to cooked beef; cited from earlier work
[4] = cited from earlier work
[5] = Acid hydrolysis of conjugates; format: physicochemical; settings: 50% (v/v) glacial acetic acid or 1 N HCl, 80 °C for 8 h
[6] = human, in vivo
human liver UGTs = settings: human liver microsomes fortified with UDPGA; cited from earlier work

Cn1c(N)nc2ncc(-c3ccc(O)cc3)cc21 [4'-HO-PhIP, 2-amino-1-methyl-6-(4′-hydroxy)-phenylimidazo[4,5-b]pyridine]
Amount in urine collected for 10 h after consumption of cooked beef ([1]; Subject S-001): 20.1 ± 9.9 ng
% Dose in urine collected for 10 h after consumption of cooked beef ([1]; Subject S-001): 0.4 % Dose
Amount in urine collected for 10 h after consumption of cooked beef ([1]; Subject S-003): 35.0 ± 3.4 ng
% Dose in urine collected for 10 h after consumption of cooked beef ([1]; Subject S-003): 0.7 % Dose
Amount in urine collected for 10 h after consumption of cooked beef ([1]; Subject S-005): 41.7 ± 0.9 ng
% Dose in urine collected for 10 h after consumption of cooked beef ([1]; Subject S-005): 0.8 % Dose
Amount in urine collected for 10 h after consumption of cooked beef ([1]; Subject S-008): 27.0 ± 3.8 ng
% Dose in urine collected for 10 h after consumption of cooked beef ([1]; Subject S-008): 0.5 % Dose
Amount in urine collected for 10 h after consumption of cooked beef ([1]; Subject S-009): 25.2 ± 2.8 ng
% Dose in urine collected for 10 h after consumption of cooked beef ([1]; Subject S-009): 0.5 % Dose
Amount in urine collected for 10 h after consumption of cooked beef ([1]; Subject S-012): 50.1 ± 2.8 ng
% Dose in urine collected for 10 h after consumption of cooked beef ([1]; Subject S-012): 1.0 % Dose
Amount in urine collected for 10 h after consumption of cooked beef ([1]; Subject S-013): 37.2 ± 5.2 ng
% Dose in urine collected for 10 h after consumption of cooked beef ([1]; Subject S-013): 0.7 % Dose
Amount in urine collected for 10 h after consumption of cooked beef ([1]; Subject S-014): 18.4 ± 1.2 ng
% Dose in urine collected for 10 h after consumption of cooked beef ([1]; Subject S-014): 0.4 % Dose
Amount in urine collected for 10 h after consumption of cooked beef ([1]; Subject S-015): 18.3 ± 2.9 ng
% Dose in urine collected for 10 h after consumption of cooked beef ([1]; Subject S-015): 0.3 % Dose
Amount in urine collected for 10 h after consumption of cooked beef ([1]; Subject S-020): 38.3 ± 2.5 ng
% Dose in urine collected for 10 h after consumption of cooked beef ([1]; Subject S-020): 0.7 % Dose

Cn1c(=NO)n([C@@H]2O[C@H](C(=O)O)[C@@H](O)[C@H](O)[C@H]2O)c2ncc(-c3ccccc3)cc21 [HONH-PhIP-N3-GI, N3-(ß-1-glucosidurony1)-N-hydroxy-2-amino-1-methy1-6-phenylimidazo[4,5-b]pyridine]
Amount in urine collected for 10 h after consumption of cooked beef ([1]; Subject S-001): 238 ± 7.4 ng
% Dose in urine collected for 10 h after consumption of cooked beef ([1]; Subject S-001): 2.6 % Dose
Amount in urine collected for 10 h after consumption of cooked beef ([1]; Subject S-003): 189 ± 10.6 ng
% Dose in urine collected for 10 h after consumption of cooked beef ([1]; Subject S-003): 2.1 % Dose
Amount in urine collected for 10 h after consumption of cooked beef ([1]; Subject S-005): 176 ± 4.2 ng
% Dose in urine collected for 10 h after consumption of cooked beef ([1]; Subject S-005): 1.9 % Dose
Amount in urine collected for 10 h after consumption of cooked beef ([1]; Subject S-008): 222 ± 10.0 ng
% Dose in urine collected for 10 h after consumption of cooked beef ([1]; Subject S-008): 2.5 % Dose
Amount in urine collected for 10 h after consumption of cooked beef ([1]; Subject S-009): 191 ± 5.5 ng
% Dose in urine collected for 10 h after consumption of cooked beef ([1]; Subject S-009): 2.1 % Dose
Amount in urine collected for 10 h after consumption of cooked beef ([1]; Subject S-012): 319 ± 6.0 ng
% Dose in urine collected for 10 h after consumption of cooked beef ([1]; Subject S-012): 3.5 % Dose
Amount in urine collected for 10 h after consumption of cooked beef ([1]; Subject S-013): 179 ± 7.0 ng
% Dose in urine collected for 10 h after consumption of cooked beef ([1]; Subject S-013): 2.0 % Dose
Amount in urine collected for 10 h after consumption of cooked beef ([1]; Subject S-014): 89.5 ± 3.3 ng
% Dose in urine collected for 10 h after consumption of cooked beef ([1]; Subject S-014): 1.0 % Dose
Amount in urine collected for 10 h after consumption of cooked beef ([1]; Subject S-015): 216 ± 12.0 ng
% Dose in urine collected for 10 h after consumption of cooked beef ([1]; Subject S-015): 2.4 % Dose
Amount in urine collected for 10 h after consumption of cooked beef ([1]; Subject S-020): 253 ± 4.9 ng
% Dose in urine collected for 10 h after consumption of cooked beef ([1]; Subject S-020): 2.8 % Dose

Cn1c(N(O)[C@@H]2O[C@H](C(=O)O)[C@@H](O)[C@H](O)[C@H]2O)nc2ncc(-c3ccccc3)cc21 [HONH-PhIP-N^2-GI, N^2-(ß-1-glucosidurony1)-N-hydroxy-2-amino-1-methy1-6-phenylimidazo[4,5-b]pyridine]
Amount in urine collected for 10 h after consumption of cooked beef ([1]; Subject S-001): 2201 ± 37.3 ng
% Dose in urine collected for 10 h after consumption of cooked beef ([1]; Subject S-001): 24.3 % Dose
Amount in urine collected for 10 h after consumption of cooked beef ([1]; Subject S-003): 2692 ± 121 ng
% Dose in urine collected for 10 h after consumption of cooked beef ([1]; Subject S-003): 29.7 % Dose
Amount in urine collected for 10 h after consumption of cooked beef ([1]; Subject S-005): 2112 ± 88.5 ng
% Dose in urine collected for 10 h after consumption of cooked beef ([1]; Subject S-005): 23.3 % Dose
Amount in urine collected for 10 h after consumption of cooked beef ([1]; Subject S-008): 2198 ± 88.2 ng
% Dose in urine collected for 10 h after consumption of cooked beef ([1]; Subject S-008): 24.3 % Dose
Amount in urine collected for 10 h after consumption of cooked beef ([1]; Subject S-009): 2009 ± 31.0 ng
% Dose in urine collected for 10 h after consumption of cooked beef ([1]; Subject S-009): 22.2 % Dose
Amount in urine collected for 10 h after consumption of cooked beef ([1]; Subject S-012): 2621 ± 86.0 ng
% Dose in urine collected for 10 h after consumption of cooked beef ([1]; Subject S-012): 29.0 % Dose
Amount in urine collected for 10 h after consumption of cooked beef ([1]; Subject S-013): 1848 ± 25.6 ng
% Dose in urine collected for 10 h after consumption of cooked beef ([1]; Subject S-013): 20.4 % Dose
Amount in urine collected for 10 h after consumption of cooked beef ([1]; Subject S-014): 1274 ± 29.0 ng
% Dose in urine collected for 10 h after consumption of cooked beef ([1]; Subject S-014): 14.1 % Dose
Amount in urine collected for 10 h after consumption of cooked beef ([1]; Subject S-015): 2067 ± 103 ng
% Dose in urine collected for 10 h after consumption of cooked beef ([1]; Subject S-015): 22.8 % Dose
Amount in urine collected for 10 h after consumption of cooked beef ([1]; Subject S-020): 2223 ± 15.6 ng
% Dose in urine collected for 10 h after consumption of cooked beef ([1]; Subject S-020): 24.6 % Dose

Cc1cnc2ccc3c(nc(N)n3C)c2n1 [MeIQx, 2-amino-3,8-dimethylimidazo[4,5-f]quinoxaline]
Amount in urine, Overall mean ([1]; Subject 9): 22.1 pg/mL
Amount in urine, Overall mean ([1]; Subject 14): 10.4 pg/mL
Amount in urine, Overall mean ([1]; Subject 20): 29.2 pg/mL
Amount in urine collected for 10 h after consumption of cooked beef ([1]; Subject S-001): 80.3 ± 2.7 ng
% Dose in urine collected for 10 h after consumption of cooked beef ([1]; Subject S-001): 8.7 % Dose
Amount in urine collected for 10 h after consumption of cooked beef ([1]; Subject S-003): 26.7 ± 1.6 ng
% Dose in urine collected for 10 h after consumption of cooked beef ([1]; Subject S-003): 2.9 % Dose
Amount in urine collected for 10 h after consumption of cooked beef ([1]; Subject S-005): 32.4 ± 1.5 ng
% Dose in urine collected for 10 h after consumption of cooked beef ([1]; Subject S-005): 3.5 % Dose
Amount in urine collected for 10 h after consumption of cooked beef ([1]; Subject S-008): 33.8 ± 1.3 ng
% Dose in urine collected for 10 h after consumption of cooked beef ([1]; Subject S-008): 3.7 % Dose
Amount in urine collected for 10 h after consumption of cooked beef ([1]; Subject S-009): 45.7 ± 1.4 ng
% Dose in urine collected for 10 h after consumption of cooked beef ([1]; Subject S-009): 5.0 % Dose
Amount in urine collected for 10 h after consumption of cooked beef ([1]; Subject S-012): 48.3 ± 1.9 ng
% Dose in urine collected for 10 h after consumption of cooked beef ([1]; Subject S-012): 5.2 % Dose
Amount in urine collected for 10 h after consumption of cooked beef ([1]; Subject S-013): 60.9 ± 3.2 ng
% Dose in urine collected for 10 h after consumption of cooked beef ([1]; Subject S-013): 6.6 % Dose
Amount in urine collected for 10 h after consumption of cooked beef ([1]; Subject S-014): 20.6 ± 0.9 ng
% Dose in urine collected for 10 h after consumption of cooked beef ([1]; Subject S-014): 2.2 % Dose
Amount in urine collected for 10 h after consumption of cooked beef ([1]; Subject S-015): 39.2 ± 2.0 ng
% Dose in urine collected for 10 h after consumption of cooked beef ([1]; Subject S-015): 4.2 % Dose
Amount in urine collected for 10 h after consumption of cooked beef ([1]; Subject S-020): 51.5 ± 2.2 ng
% Dose in urine collected for 10 h after consumption of cooked beef ([1]; Subject S-020): 5.6 % Dose
Vmax, oxidation of the 8-methyl group to form IQx-8-CH2OH (P450 1A2 [2]): 0.1 nmol/min/mg protein
Vmax, production of HONH-MeIQx (P450 1A2 [2]): 3.9 nmol/ min/mg of protein
Km (P450 1A2 [2]; read-out: Km, oxidation of the 8-methyl group to form IQx-8-CH2OH): 3.1 µM
Km (P450 1A2 [2]; read-out: Km, production of HONH-MeIQx): 15 µM
Share of elimination accounted for by P450 1A2 (P450 1A2 [3]): 90%
pKa [4]: 5.94

Cc1cnc2ccc3c(nc(N[C@@H]4O[C@H](C(=O)O)[C@@H](O)[C@H](O)[C@H]4O)n3C)c2n1 [MeIQx-N^2-Gl, N^2-(ß-1-glucosiduronyl)-2-amino-3,8-dimethylimidazo[4,5-f]quinoxaline]
Behaviour under acid hydrolysis conditions [5]: quantitatively hydrolyzed to the parent amines

Cc1cnc2ccc3c(nc(NS(=O)(=O)O)n3C)c2n1 [MeIQx-N^2-SO3H, N^2-(3,8-dimethylimidazo[4,5-f]quinoxalin-2-yl)-sulfamic acid]
Behaviour under acid hydrolysis conditions [5]: quantitatively hydrolyzed to the parent amines

Cc1cnc2cc3nc(N)n(C)c3cc2n1 [MeIgQx, 2-amino-1,7-dimethylimidazo[4,5-g]quinoxaline]
Increase in amount in urine following acid hydrolysis [6]: up to 5 fold

Cn1c(=N)n([C@@H]2O[C@H](C(=O)O)[C@@H](O)[C@H](O)[C@H]2O)c2ncc(-c3ccccc3)cc21 [PhIP-N3-Gl, N3-(ß-1-glucosidurony1)-2-amino-1-methy1-6-phenylimidazo[4,5-b]pyridine]
Amount present in urine samples [1]: below the LOQ
Behaviour under acid hydrolysis conditions [5]: stable
Proportion of the conjugate that underwent hydrolysis [5]: < 5%
Amount formed relative to PhIP-N^2-Gl (human liver UGTs): 10 fold

Cn1c(N[C@@H]2O[C@H](C(=O)O)[C@@H](O)[C@H](O)[C@H]2O)nc2ncc(-c3ccccc3)cc21 [PhIP-N^2-Gl, N^2-(ß-1-glucosidurony1)-2-amino-1-methy1-6-phenylimidazo[4,5-b]pyridine]
Amount present in urine samples [1]: ~ 50 pg/mL
Behaviour under acid hydrolysis conditions [5]: quantitatively hydrolyzed to the parent amines
